Assay results: patent US20050261331A1, “Substituted pyrrolopyridines” (priority 2002, published 2005)
Counter-ions that a name gives are not always drawn.

Molecular target: T1, recombinant human Itk kinase domain fused with GST (Homo sapiens, UniProt Q08881)
T1 construct: recombinant human Itk kinase domain fused with GST; made in house; host or cells: High Five insect cells
T1 sequence (Q08881 363-615 limits assumed): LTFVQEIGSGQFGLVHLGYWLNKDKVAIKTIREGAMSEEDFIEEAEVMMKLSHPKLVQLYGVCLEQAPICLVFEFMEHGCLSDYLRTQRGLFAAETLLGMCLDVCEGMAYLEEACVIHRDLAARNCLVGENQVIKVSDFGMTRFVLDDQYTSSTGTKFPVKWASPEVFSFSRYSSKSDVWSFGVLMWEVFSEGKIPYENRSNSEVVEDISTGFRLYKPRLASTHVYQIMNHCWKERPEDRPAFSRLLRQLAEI
Assay: Itk LANCE TRF Assay
Format: biochemical
Conditions: 160 ng/well Itk, 2 μM peptide substrate, 50 μM ATP, 50 minutes RT; read-out: Inhibition of Kinase Itk (IC50 μM)
Experimental: The Itk kinase assay utilized recombinant human Itk kinase domain fused with GST (Glutathione S-Transferase). The protein was expressed in High five insect cells, purified in one step on an affinity chromatography glutathione column and stored in 50 mM Tris/HCl (pH 7.6), 150 mM NaCl, 5% (w/v) mannitol, 1 mM DTT, 30% glycerol at −70° C. The kinase substrate used in the assay was a biotinylated peptide derived from the Src-optimal substrate (Nair et al, J. Med. Chem., 38: 4276, 1995; biotin-AEEEIYGEFEAKKKK).
The assay additions were as follows: Test compounds (or controls; 1 μL in 100% DMSO) were added to black 96-well flat-bottomed plates (Greiner 655076) followed by 20 μL Itk in assay buffer and the reaction was started by adding 20 μL ATP and peptide substrate in assay buffer. The assay buffer constitution during phosphorylation was: 50 mM HEPES (pH 6.8), 10 mM MgCl2, 0.015% Brij 35, 1 mM DTT, 10% glycerol, 160 ng/well Itk, 2 μM peptide substrate and 50 μM ATP. The assay was stopped after 50 minutes (RT) by adding 150 μL ice-cold Stop solution (50 mM Tris/HCl, pH 7.5, 10 mM EDTA, 0.9% NaCl and 0.1% BSA) together with LANCE reagents (2 nM PT66-Eu^3+, Wallac AD0069 and 5 μg/ml Streptavidin-APC, Wallac AD0059. Both concentrations were final in stopped assay solution). The plates were measured on a Wallac 1420 Victor 2 instrument with TRF settings after 1 h incubation, and the ratio (665 signal/615 signal)*10000 was used to calculate the inhibition values. IC50 values were determined using XLfit.
`CN(C)CCCOc1ccc(-c2c(-c3ccco3)[nH]c3ncc(Br)cc23)cc1` [Example 5, 3-{4-[S-Bromo-2-(2-furyl)-1H-pyrrolo[2,3-b]pyridin-3-yl]phenoxy}-N,N-dimethylpropan-1-amine trifluoroacetate] gave an IC50 of 0.01 µM. `CC(=O)NCc1ccc(-c2c(-c3ccccc3)[nH]c3ncc(Br)cc23)o1` [Example 13, N-[5-(5-Bromo-2-phenyl-1-H-pyrrolo[2,3-b]pyridin-3-yl)-furan-2-ylmethyl]-acetamide] showed an IC50 of 0.03 µM. With `N#Cc1cnc2[nH]c(-c3ccccc3)c(-c3ccc(N4CCOCC4)cc3)c2c1` [Example 44, 3-(4-Morpholin-4-ylphenyl)-2-phenyl-1H-pyrrolo[2,3-b]pyridine-5-carbonitrile] the IC50 was 0.44 µM. Work on `Cc1c(Br)cnc2[nH]c(-c3ccc(OCCCN(C)C)cc3)c(-c3cccnc3)c12` [Example 55, {3-[4-(5-Bromo-4-methyl-3-pyridin-3-yl-1H-pyrrolo[2,3-b]pyridin-2-yl)phenoxy]propyl}dimethylamine] yielded an IC50 of 0.01 µM. `CN(C)CCCN(C)c1ccc(-c2[nH]c3ncc(Cl)cc3c2-c2cncnc2)cn1` [Example 61, N-[5-(5-Chloro-3-pyrimidin-5-yl-1H-pyrrolo[2,3-b]pyridin-2-yl]-N,N′,N′-trimethylpropane-1,3-diaminetrihydrochloride] gave an IC50 of 0.04 µM.

Test system: not given
Assay: not given
Conditions: not given
With `Brc1cnc2[nH]c(-c3ccccc3)c(-c3ccco3)c2c1` [Example 12, 5-Bromo-3-furan-2-yl-2-phenyl-1-H-pyrrolo[2,3-b]pyridine] the melting point was 105 to 107 °C. Work on `CC(=O)NCc1ccc(-c2c(-c3ccccc3)[nH]c3ncc(Br)cc23)o1` [Example 13, N-[5-(5-Bromo-2-phenyl-1-H-pyrrolo[2,3-b]pyridin-3-yl)-furan-2-ylmethyl]-acetamide] yielded a melting point of 176 to 176.5 °C.
